Laboratory results published in patent publication US8895744B2, “Alfa-carboline inhibitors of NPM-ALK, RET, and Bcr-Abl” (Universita' Degli Studi di Milano-Bicocca, priority 2008, dated 2014).
Like-named read-outs stand apart in the source and are kept apart here.

Assays:
[1] = system: parent untransformed BaF3 cells; test: Tritiated thymidine uptake cell proliferation assay, parental BaF3 (control); format: cell-based; conditions: Mus musculus, 3[H]-thymidine uptake, 72 h, medium with IL-3, read-out: BaF parental IC50
Procedure, shortened: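 Control lines were parental BaF3 in IL-3-supplemented medium and ALK-, Abl- or RET-negative U937, seeded at 10 000 cells/well with serial inhibitor dilutions for 72 h at 37 °C. ³H-thymidine (1 μCi/well) was added for the final 16 h; IC50 (μM) is the concentration halving uptake versus DMSO.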

[2] = target: T1, BaF3 cells transformed with the oncogenic fusion protein NPM/ALK (Homo sapiens, UniProt Q9UM73); test: Tritiated thymidine uptake cell proliferation assay, BaF3 NPM/ALK; format: cell-based; conditions: 3[H]-thymidine uptake, 72 h; read-out: BaF NPM/ALK IC50
T1 construct: fused on or other part: P06748 (Nucleophosmin)
Procedure, shortened: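 Cells were seeded at 10 000/well with serial inhibitor dilutions or DMSO vehicle and incubated 72 h at 37 °C, with ^3[H]-thymidine (1 μCi/well) added for the final 16 h. Incorporation was read by β scintillation counting. IC50 (μM) is the concentration giving a 50% decrease in uptake versus controls.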

[3] = target: BaF3 cells transformed with the oncogenic fusion protein bcr-abl (Homo sapiens, UniProt P00519); test: Tritiated thymidine uptake cell proliferation assay, BaF3 BCR/ABL; format: cell-based; conditions: 3[H]-thymidine uptake, 72 h; read-out: BaF BCR/ABL IC50
Experimental: Inhibition of the Proliferation of Bcr/Abl Positive Cells
(§1) Method: Tritiated Thymidine Uptake Cell Proliferation Assay
(§2) The following procedure was used with parent untransformed BaF3 cells, BaF3 cells transformed with the oncogenic fusion protein bcr-abl, Abl-negative U937 cells, or Bcr-abl positive LAMA-84 cells. The parent untransformed BaF3 cells and Abl-negative U937 cells are used as controls. Cells were seeded in U-bottomed 96-well plates at 10 000 cells/well in a volume of 100 μL in supplemented medium. In the case of the parent untransformed BaF3 cells, the medium was supplemented with IL-3. Serial dilutions of inhibitors were added to the appropriate wells and volumes adjusted to 200 μL. Controls were treated with the equivalent volume of vehicle, DMSO, alone. Plates were incubated at 37° C. for 72 h. ^3[H]-thymidine (1 μCi/well) was added for the last 16 h of incubation. Cells were harvested on to paper filters and ^3[H]-thymidine incorporation was measured using a β scintillation counter (1430 MicroBeta, Wallac, Turku, Finland). The 50% inhibitory concentration (IC50) was defined as the concentration of inhibitor, expressed in micromolar, that gave a 50% decrease in ^3H-thymidine uptake compared with controls.

Recombinant ALK kinase = target: T2, Recombinant ALK kinase (Homo sapiens, UniProt Q9UM73); test: ALK kinase inhibitory activity, ELISA-based in vitro kinase assay; format: biochemical; conditions: for ALK IC50, 2nd / subsequent determination: 2nd or 'then'
T2 construct: made in house; host or cells: Sf9 insect cells (baculovirus)
Procedure, shortened: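 Sf9-expressed, purified recombinant ALK phosphorylated a plate-coated peptide substrate with 0.3 mM ATP, Mn2+/Mg2+, pH 7.5, 15 min at 30° C, after 10 min inhibitor preincubation. Phosphotyrosine was detected by anti-pTyr ELISA (TMB, A450); IC50 in μM is the concentration giving 50% inhibition relative to control.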

[4] = target: T3, Recombinant Abl T315I protein (Homo sapiens, UniProt P00519, T315I); test: Abl T315I mutant kinase inhibitory activity, ELISA-based in vitro kinase assay; format: biochemical; conditions: purified Abl T315I, 0.3 mM ATP
T3 construct: made in house; host or cells: Sf9 cells (baculovirus)
Procedure, shortened: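 His-tagged human Abl T315I from Sf9 cells, preincubated 10 min at room temperature with inhibitor, then reacted on peptide-coated plates with 0.3 mM ATP, 1 mM MnCl2, 5 mM MgCl2 in 50 mM Tris pH 7.5. Phosphotyrosine detected by anti-pTyr/HRP ELISA at 450 nm; IC50 as 50% inhibition vs control.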

Recombinant Ret protein = target: T4, Recombinant Ret protein (Homo sapiens, UniProt P07949); test: RET kinase inhibitory activity, ELISA-based in vitro kinase assay; format: biochemical; conditions: purified Ret, 0.3 mM ATP
T4 construct: made in house; host or cells: Sf9 cells (baculovirus)
Experimental: Recombinant ALK kinase was expressed in Sf9 insect cells using the pBlueBacHis2C baculovirus vector system and purified using an anion exchange Fast Flow Q-sepharose column (Amersham-Pharmacia Biotech) followed by HiTrap™-nickel affinity column (Amersham-Pharmacia Biotech). Purified ALK protein was used to screen inhibitors in the ELISA-based kinase assay. A Nunc Immuno 96 well plate was incubated overnight at 37° C. with coating solution (125 μL/well) containing ALK peptide substrate ([…]) (SEQ ID NO: 1) at various concentrations in PBS. Wells were then washed with 200 μL of wash buffer (PBS-Tween 0.05%) and left to dry for at least 2 h at 37° C. The kinase reaction was performed in the presence of 50 mM Tris pH 7.5, 5 mM MnCl2, 5 mM MgCl2, 0.3 mM ATP and purified rALK in a total volume of 100 μL/well at 30° C. for 15 min. For inhibitor testing the reaction mix was preincubated with the inhibitor or solvent control for 10 min at room temperature before transferring to the ELISA plate. After the reaction wells were washed 5 times with 200 μL of wash buffer. Phosphorylated peptide was detected using 100 μL/well of a mouse monoclonal anti-phosphotyrosine antibody (clone 4G10 Upstate Biotech Ltd) diluted 1:2000 in PBS+4% BSA. After 30 min incubation at room temperature the antibody was removed and wells were washed as described above. 100 μL of a secondary antibody (anti-mouse IgG, Horseradish Peroxidase linked whole antibody, Amersham Pharmacia Biotech) diluted 1:1000 in PBS+4% BSA was added to each well and the plate was incubated again for 30 min at room temperature before washing as above. The plate was developed using 100 μL/well TMB Substrate Solution (Endogen) and the reaction was stopped by adding an equiv.ual volume of H2SO4 0.36 M. Finally, the absorbance was read at 450 nm using an Ultrospec® 300 spectrophotometer (Amersham-Pharmacia Biotech). The concentration of the test solution showing 50% inhibition as compared with the control was expressed as IC50 (μM).
38. RET Kinase Inhibitory Activity
Method: ELISA-Based In Vitro Kinase Assay
Recombinant Ret protein was expressed in Sf9 cells using the pBlueBacHis2C baculovirus expression vector. Ret was purified using an anion exchange Fast Flow Q-sepharose column (Amersham-Pharmacia Biotech) followed by HiTrap™-nickel affinity column (Amersham-Pharmacia Biotech). Purified Ret was used in the ELISA-based kinase assay to screen inhibitors as described above. The kinase reaction was performed in the presence of 50 mM Tris pH 7.5, 1 mM MnCl2, 5 mM MgCl2, 0.3 mM ATP, peptide substrate ([…]) (SEQ ID NO: 1) and purified Ret. The concentration of the test solution showing 50% inhibition as compared with the control was expressed as IC50 (μM).

[5] = system: NPM/ALK positive SUDHL-1 cells; test: Tritiated thymidine uptake cell proliferation assay, SUDHL-1; format: cell-based; conditions: 3[H]-thymidine uptake, 72 h
Experimental: Inhibition of the proliferation of NPM/ALK positive cells
as §1
as §2, with “NPM/ALK, NPM/ALK positive SUDHL-1 cells, ALK-negative” for “bcr-abl, Abl-negative”, “NPM/ALK” for “or Bcr-abl”, “KARPAS-299” for “LAMA-84”, “Alk-negative” for “Abl-negative”, “^3[H]-thymidine” for “^3H-thymidine”

ALK-negative U937 cells = test: Tritiated thymidine uptake cell proliferation assay, U937 (control); format: cell-based; conditions: Homo sapiens, U-937; 3[H]-thymidine uptake, 72 h
Experimental: as §1
The following procedure was used with parent untransformed BaF3 cells, BaF3 cells transformed with the oncogenic fusion protein NPM/ALK, NPM/ALK positive SUDHL-1 cells, ALK-negative U937 cells, NPM/ALK positive KARPAS-299 cells. The parent untransformed BaF3 cells and Alk-negative U937 cells are used as controls. Cells were seeded in U-bottomed 96-well plates at 10 000 cells/well in a volume of 100 μL in supplemented medium. In the case of the parent untransformed BaF3 cells, the medium was supplemented with IL-3. Serial dilutions of inhibitors were added to the appropriate wells and volumes adjusted to 200 μL. Controls were treated with the equivalent volume of vehicle, DMSO, alone. Plates were incubated at 37° C. for 72 h. ^3[H]-thymidine (1 μCi/well) was added for the last 16 h of incubation. Cells were harvested on to paper filters and ^3[H]-thymidine incorporation was measured using a β scintillation counter (1430 MicroBeta, Wallac, Turku, Finland). The 50% inhibitory concentration (IC50) was defined as the concentration of inhibitor, expressed in micromolar, that gave a 50% decrease in ^3[H]-thymidine uptake compared with controls. […]
as §2, with “RET-PTC2,” for “bcr-abl, Abl-negative U937 cells,”, “RET-negative 11937” for “Bcr-abl positive LAMA-84”, “RET-negative” for “Abl-negative”, “^3[H]-thymidine” for “^3H-thymidine”

[6] = purified rALK, 0.3 mM ATP, read-out: ALK IC50
[7] = repeated determinations, 1st, read-out: ALK IC50, 1st determination

T1 sequence (Q9UM73 whole entry, change not shown, the tested form may be a part): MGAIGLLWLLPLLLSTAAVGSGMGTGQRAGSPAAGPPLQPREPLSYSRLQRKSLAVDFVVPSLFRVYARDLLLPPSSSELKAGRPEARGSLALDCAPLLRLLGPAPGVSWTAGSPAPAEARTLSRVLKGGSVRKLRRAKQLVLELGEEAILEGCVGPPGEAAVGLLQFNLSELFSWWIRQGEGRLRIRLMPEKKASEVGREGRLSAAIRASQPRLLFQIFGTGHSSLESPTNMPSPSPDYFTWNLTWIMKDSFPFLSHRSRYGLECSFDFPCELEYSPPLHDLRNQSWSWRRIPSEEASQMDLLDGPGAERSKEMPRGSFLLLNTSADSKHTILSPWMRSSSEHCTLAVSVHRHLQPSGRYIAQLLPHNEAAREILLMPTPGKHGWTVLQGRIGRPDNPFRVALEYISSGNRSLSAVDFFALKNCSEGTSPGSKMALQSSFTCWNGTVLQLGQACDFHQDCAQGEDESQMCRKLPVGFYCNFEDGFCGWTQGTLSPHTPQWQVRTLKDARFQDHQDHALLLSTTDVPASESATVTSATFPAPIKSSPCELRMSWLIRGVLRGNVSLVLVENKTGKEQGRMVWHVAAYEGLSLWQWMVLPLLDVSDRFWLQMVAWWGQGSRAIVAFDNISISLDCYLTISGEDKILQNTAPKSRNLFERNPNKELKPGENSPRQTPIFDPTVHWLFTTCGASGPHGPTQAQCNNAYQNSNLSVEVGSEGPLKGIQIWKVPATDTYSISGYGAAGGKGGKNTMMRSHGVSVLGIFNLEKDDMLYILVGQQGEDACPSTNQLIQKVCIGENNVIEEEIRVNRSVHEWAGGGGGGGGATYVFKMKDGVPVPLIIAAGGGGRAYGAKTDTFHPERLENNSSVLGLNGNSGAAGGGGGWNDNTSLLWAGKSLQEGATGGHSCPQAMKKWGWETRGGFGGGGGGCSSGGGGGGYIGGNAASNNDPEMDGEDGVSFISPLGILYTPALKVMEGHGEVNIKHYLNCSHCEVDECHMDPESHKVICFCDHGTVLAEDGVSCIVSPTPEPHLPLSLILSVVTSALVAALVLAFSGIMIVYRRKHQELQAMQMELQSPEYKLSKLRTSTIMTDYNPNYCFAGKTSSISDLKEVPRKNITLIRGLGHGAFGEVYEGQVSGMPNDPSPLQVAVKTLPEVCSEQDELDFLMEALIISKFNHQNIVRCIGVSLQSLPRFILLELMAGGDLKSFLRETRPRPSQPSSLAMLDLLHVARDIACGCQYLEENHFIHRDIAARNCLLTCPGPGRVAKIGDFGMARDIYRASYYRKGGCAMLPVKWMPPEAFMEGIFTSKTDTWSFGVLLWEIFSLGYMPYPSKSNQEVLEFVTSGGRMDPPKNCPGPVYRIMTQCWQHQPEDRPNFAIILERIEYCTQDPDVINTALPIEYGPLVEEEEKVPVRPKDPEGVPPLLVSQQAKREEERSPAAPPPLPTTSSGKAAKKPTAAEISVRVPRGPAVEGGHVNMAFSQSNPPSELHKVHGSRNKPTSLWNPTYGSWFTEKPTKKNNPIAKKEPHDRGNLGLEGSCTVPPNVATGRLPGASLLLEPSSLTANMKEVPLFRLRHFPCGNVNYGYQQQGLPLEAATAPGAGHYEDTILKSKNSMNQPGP
T2 sequence (Q9UM73 19-1620): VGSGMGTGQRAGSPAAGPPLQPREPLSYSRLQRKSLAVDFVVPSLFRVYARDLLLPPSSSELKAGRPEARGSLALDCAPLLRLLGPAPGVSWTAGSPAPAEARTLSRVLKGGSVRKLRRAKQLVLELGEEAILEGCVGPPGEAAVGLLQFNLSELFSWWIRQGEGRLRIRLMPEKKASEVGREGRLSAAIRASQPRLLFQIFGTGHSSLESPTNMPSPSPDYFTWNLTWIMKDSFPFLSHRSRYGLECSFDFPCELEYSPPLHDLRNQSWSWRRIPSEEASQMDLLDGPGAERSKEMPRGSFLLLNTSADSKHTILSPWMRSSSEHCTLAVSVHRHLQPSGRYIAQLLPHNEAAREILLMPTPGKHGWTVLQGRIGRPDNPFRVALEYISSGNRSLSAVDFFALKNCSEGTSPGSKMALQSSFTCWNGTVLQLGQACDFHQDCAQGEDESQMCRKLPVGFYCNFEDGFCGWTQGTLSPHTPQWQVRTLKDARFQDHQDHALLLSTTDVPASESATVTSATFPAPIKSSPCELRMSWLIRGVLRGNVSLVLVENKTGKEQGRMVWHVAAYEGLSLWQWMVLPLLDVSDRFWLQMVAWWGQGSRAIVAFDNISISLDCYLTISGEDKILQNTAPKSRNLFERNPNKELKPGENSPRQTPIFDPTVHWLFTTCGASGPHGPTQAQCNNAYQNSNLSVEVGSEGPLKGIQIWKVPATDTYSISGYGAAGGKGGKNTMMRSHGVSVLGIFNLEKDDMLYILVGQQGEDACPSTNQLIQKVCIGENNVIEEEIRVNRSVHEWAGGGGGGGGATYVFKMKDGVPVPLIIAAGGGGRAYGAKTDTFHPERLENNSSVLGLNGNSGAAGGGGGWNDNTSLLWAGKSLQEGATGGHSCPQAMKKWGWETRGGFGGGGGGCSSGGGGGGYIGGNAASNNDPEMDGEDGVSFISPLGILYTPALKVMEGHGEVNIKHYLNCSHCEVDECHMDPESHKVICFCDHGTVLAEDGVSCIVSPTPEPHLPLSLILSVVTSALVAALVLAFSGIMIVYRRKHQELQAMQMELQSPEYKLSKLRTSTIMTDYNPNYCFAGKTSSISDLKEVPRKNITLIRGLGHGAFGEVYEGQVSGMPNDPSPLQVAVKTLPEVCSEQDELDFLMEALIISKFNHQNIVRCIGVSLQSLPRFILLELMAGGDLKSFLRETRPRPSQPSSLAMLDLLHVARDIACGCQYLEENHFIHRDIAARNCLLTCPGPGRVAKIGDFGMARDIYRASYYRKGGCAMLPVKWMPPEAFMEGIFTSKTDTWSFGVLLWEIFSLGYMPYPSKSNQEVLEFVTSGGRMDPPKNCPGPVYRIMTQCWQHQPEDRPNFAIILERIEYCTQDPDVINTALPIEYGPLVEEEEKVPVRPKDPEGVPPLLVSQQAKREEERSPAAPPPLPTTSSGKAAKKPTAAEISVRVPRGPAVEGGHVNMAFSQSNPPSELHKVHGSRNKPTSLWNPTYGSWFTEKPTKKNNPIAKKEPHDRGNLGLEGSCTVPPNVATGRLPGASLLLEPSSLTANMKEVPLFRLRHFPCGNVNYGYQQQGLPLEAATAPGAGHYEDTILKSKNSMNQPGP
T4 sequence (P07949 29-1114): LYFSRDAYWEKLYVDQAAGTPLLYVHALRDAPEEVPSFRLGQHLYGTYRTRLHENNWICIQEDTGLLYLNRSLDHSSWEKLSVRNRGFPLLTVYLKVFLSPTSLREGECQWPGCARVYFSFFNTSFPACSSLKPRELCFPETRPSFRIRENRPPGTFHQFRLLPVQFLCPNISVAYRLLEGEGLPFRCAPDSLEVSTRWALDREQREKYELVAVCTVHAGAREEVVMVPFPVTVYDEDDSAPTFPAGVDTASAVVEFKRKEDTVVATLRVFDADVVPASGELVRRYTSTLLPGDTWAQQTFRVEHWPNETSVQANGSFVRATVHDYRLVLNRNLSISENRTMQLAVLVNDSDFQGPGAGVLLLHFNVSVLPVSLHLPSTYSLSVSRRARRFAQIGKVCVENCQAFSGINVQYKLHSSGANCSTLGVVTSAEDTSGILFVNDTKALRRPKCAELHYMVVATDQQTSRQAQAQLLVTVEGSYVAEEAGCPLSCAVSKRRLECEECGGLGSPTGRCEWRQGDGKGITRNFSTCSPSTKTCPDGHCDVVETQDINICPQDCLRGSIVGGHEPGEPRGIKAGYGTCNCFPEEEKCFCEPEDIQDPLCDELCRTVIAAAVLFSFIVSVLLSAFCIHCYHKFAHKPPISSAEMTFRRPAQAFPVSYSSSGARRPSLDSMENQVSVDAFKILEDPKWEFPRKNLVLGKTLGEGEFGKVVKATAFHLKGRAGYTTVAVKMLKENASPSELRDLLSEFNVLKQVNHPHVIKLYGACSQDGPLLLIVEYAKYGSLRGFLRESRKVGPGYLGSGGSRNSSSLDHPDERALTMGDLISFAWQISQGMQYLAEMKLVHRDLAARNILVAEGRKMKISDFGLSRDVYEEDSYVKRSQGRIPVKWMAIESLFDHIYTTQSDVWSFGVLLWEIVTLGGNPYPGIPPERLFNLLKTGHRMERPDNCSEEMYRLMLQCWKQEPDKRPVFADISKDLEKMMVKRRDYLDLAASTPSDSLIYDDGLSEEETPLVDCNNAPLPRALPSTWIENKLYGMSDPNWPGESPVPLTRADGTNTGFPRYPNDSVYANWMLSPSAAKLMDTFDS

Structure (SMILES)	GI50 [2] [µM]	GI50 [3] [µM]	IC50 (Recombinant ALK kinase; [6]) [µM]	IC50 [4] [µM]	IC50 (Recombinant Ret protein) [µM]	IC50 [5] [µM]	IC50 (ALK-negative U937 cells) [µM]	IC50 (Recombinant ALK kinase; [7]) [µM]	ALK IC50, 2nd / subsequent determination (Recombinant ALK kinase; repeated determinations)	IC50 [1] [µM]
CC(=O)c1ccc2[nH]c3ncc(Cl)cc3c2c1 [R253, 6-acetyl-3-chloro-9H-pyrido[2,3-b]indole]	> 20	> 20								> 20
O=[N+]([O-])/C=C/c1ccc2[nH]c3ncc(Cl)cc3c2c1 [R266, 3-chloro-6-(2′-nitrovinyl)-9H-pyrido[2,3-b]indole]	3.4	2	3.3 ± 0.4	9.8 ± 0.67	4.6 ± 0.39	0.81				3.4
COc1ccc(-c2ccc3[nH]c4ncc(/C=C/c5ccccc5)cc4c3c2)cc1 [R315, 6-(4-methoxyphenyl)-3-(2′-phenylethenyl)-9H-pyrido[2,3-b]indole]	3.9 ± 1.1		1.1 ± 0.3	6.5		2	21			25 ± 10
COc1cccc(Nc2cnc3[nH]c4ccc(CCc5ccccc5)cc4c3c2)c1 [R352, N-(3-methoxyphenyl)-6-(2′-phenylethyl)-9H-pyrido[2,3-b]indol-3-amine]	5.2					8.6	13	19	inactive	5.3
c1ccc(CCc2ccc3[nH]c4ncc(-c5ccc6c(c5)OCO6)cc4c3c2)cc1 [R354, 3-(benzo[d][1,3]dioxol-5-yl)-6-(2′-phenylethyl)-9H-pyrido[2,3-b]indole]	22		13			25	27			27

Now from value to compound, other results behind:

GI50 [2] [µM]	GI50 [3] [µM]	IC50 (Recombinant ALK kinase; [6]) [µM]	IC50 [4] [µM]	IC50 (Recombinant Ret protein) [µM]	IC50 [5] [µM]	IC50 (ALK-negative U937 cells) [µM]	IC50 (Recombinant ALK kinase; [7]) [µM]	ALK IC50, 2nd / subsequent determination (Recombinant ALK kinase; repeated determinations)	Structure (SMILES)	IC50 [1] [µM]
> 25	> 25	> 100	> 100	> 100	13				CN(C)CCSCC(=O)c1ccc2[nH]c3ncccc3c2c1 [R263]	> 25
13	23	13 ± 0.58	49 ± 1.1	24 ± 6.1	24				O=C(CSc1ccccn1)c1ccc2[nH]c3ncccc3c2c1 [R264]	19
> 25	> 25	40 ± 1.9	54 ± 43	26 ± 4.7	> 25				O=C(NCCc1ccc2[nH]c3ncc(Cl)cc3c2c1)c1ccccc1 [R265, N-(2-(3-chloro-9H-pyrido[2,3-b]indol-6-yl)ethyl)benzamide]	> 25
> 25	> 25		3.6 ± 0.19	3.3 ± 1.5	0.6				COc1ccc(-c2ccc3[nH]c4ncccc4c3c2)cc1 [R268]	> 25
> 100					7.6	23	66	inactive	Clc1cnc2[nH]c3ccc(CCc4ccccc4)cc3c2c1 [R351, 3-chloro-6-(2′-phenylethyl)-9H-pyrido[2,3-b]indole]	> 100
